The test system of one series is HUH7 cells. In words: Cytotoxicity assay (Alamar blue) in HUH7 cells. The series is classed as cell-based. To be noted: for change in cell viability: over/after 5 days; for decrease in cell viability: after 5 days (HLB-0532246: at high concentrations); for cytotoxicity / change in cell viability: after 2 or 5 days. The procedure: (§1) HUH7 and Vero cell lines were maintained in a humidified 5% CO2 environment at 37° C. HUH7 cells were cultured in DMEM (4500 mg/L “high glucose”+L-glutamine+25 mM HEPES-sodium pyruvate) supplemented with fetal bovine serum (10% FBS), penicillin (100 IU/mL), streptomycin ([…]), and 1% nonessential amino acids (NEAA). Vero cells were cultured in EMEM media supplemented with FBS (10% FBS), penicillin (100 IU/mL), and streptomycin (100 μg/mL). Cytotoxicity assays were done similarly to a previous report (J. Med. Chem. 2021, 64, 15429-15439). HUH7 or Vero cells were seeded at 2,000 cells/well in their appropriate cell culture media (50 μL) in 96-well clear plates and incubated for 24 hours. A DMSO solution of each individual compound was serially diluted (solution concentrations of 0.1, 0.5 and 1.0 mM were made) in the appropriate cell line media, and each solution (50 μL) was dosed to the cells (well volume total of 100 μL; final DMSO concentration of 0.5%). DMSO-only and no-cell control wells were dosed with a DMSO-media solution (50 μL of 1% DMSO in media) rather than compound. The cells were then incubated for 2 or 5 days. Two hours before the designated time point, Alamar blue (10 μL) was added to each well. At the time point, fluorescence data were measured using a BioTek Synergy H1 microplate reader. Cell viability was calculated by subtracting background fluorescence (no-cell control) from the measured fluorescence of each well. Wells with compounds were normalized to the DMSO-only control (100% viability) and no-cell controls. Each individual experiment was performed in groups of three technical replicates. For the reported Vero studies, cytotoxicity experiments were repeated in biological triplicate. The final cell viability percentage was calculated by averaging % viability from each of the biological replicates, and the uncertainty was calculated by propagating the standard deviations from each biological replicate (taking the square root of the sum of the squares of individual standard deviations).
(The colour change of resazurin is a common sign of viable cells or microbes.)

In a further series the test system is West Nile Virus. Briefly: Antiviral plaque assay with West Nile Virus. The series is classed as cell-based.
Series [1] relates to ZIKV. Briefly: Antiviral testing against ZIKV. The series is classed as cell-based, Zika Virus.
A further series concerns Vero cells. In words: Cytotoxicity assay (Alamar blue) in Vero cells. The series is classed as cell-based. To be noted: for cytotoxicity / change in cell viability: after 2 or 5 days; for change in cell viability: over/after 5 days; for decrease in cell viability: after 5 days (HLB-0532246: at high concentrations). As to the method:
as §1

The subject of a further series is WNV. To be noted: previously tested, cited from earlier work.
In series [2] the test system is ZIKV. The conditions noted are these: cited from earlier work; for antiviral activity against ZIKV: previously tested.
The next series addresses polymerase of SARS-CoV-2 (Severe acute respiratory syndrome coronavirus 2, UniProt P0DTD1). To be noted: cited from earlier work.
The next series has as its target polymerase of polio (PV) (Poliovirus type 1, UniProt P03300). The conditions noted are these: cited from earlier work.
Series [3] addresses polymerase of hepatitis C (HCV) (Hepatitis C virus genotype 1a, UniProt P27958). The conditions noted are these: cited from earlier work.
The target of the next series is polymerase of WNV (West Nile virus, UniProt P06935). To be noted: cited from earlier work.
The target in series [4] is polymerase of dengue (DENV) (Dengue virus type 2, UniProt P29990). The conditions noted are these: cited from earlier work.
A further series addresses polymerase of ZIKV (Zika virus, UniProt Q32ZE1). To be noted: cited from earlier work.

One may read the cell viability as a read-out of living cells in per cent, often relative to untreated cells.

“Also recorded” adds a separate entry of the source. Read-outs that look alike come from different tables or passages of the source.

Sequence of polymerase of polio (PV) (P03300 1749-2209 limits assumed): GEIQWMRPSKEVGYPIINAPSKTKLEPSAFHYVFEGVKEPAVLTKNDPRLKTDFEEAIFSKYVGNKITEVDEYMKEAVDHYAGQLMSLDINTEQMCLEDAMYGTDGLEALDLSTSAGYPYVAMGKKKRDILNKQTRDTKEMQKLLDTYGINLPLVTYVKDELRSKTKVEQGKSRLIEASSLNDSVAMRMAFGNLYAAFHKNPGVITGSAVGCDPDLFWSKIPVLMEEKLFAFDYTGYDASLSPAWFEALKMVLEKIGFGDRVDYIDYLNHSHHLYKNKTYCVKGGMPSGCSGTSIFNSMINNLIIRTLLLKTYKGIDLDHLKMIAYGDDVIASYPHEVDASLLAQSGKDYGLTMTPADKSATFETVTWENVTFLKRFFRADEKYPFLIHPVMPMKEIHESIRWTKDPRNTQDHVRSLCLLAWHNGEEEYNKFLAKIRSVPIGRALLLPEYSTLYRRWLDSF
Sequence of polymerase of ZIKV (Q32ZE1 2517-3419): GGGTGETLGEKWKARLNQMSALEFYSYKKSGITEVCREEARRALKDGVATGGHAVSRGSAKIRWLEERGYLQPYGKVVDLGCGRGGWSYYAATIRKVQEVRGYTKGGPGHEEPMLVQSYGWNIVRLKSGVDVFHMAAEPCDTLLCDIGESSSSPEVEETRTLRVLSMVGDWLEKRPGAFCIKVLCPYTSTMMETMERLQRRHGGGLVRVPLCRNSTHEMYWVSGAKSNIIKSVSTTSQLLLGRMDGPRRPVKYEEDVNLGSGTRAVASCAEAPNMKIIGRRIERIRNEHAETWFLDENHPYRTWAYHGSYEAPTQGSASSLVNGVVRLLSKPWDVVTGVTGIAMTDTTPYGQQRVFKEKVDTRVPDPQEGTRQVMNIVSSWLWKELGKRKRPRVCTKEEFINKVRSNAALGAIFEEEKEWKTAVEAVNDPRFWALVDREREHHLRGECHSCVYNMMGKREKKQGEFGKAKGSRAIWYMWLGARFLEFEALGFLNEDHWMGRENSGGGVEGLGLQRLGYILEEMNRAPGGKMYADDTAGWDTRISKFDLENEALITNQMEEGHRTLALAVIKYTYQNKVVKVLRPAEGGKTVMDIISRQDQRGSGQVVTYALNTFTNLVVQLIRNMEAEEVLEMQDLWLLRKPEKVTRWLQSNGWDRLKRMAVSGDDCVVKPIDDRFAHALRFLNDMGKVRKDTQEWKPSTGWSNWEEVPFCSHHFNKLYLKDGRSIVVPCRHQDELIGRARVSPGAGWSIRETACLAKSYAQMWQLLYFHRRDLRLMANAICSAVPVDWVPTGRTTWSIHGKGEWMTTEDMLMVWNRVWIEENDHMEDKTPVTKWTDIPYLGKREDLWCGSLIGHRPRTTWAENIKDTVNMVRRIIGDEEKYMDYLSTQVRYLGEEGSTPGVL
Sequence of polymerase of WNV (P06935 2526-3430): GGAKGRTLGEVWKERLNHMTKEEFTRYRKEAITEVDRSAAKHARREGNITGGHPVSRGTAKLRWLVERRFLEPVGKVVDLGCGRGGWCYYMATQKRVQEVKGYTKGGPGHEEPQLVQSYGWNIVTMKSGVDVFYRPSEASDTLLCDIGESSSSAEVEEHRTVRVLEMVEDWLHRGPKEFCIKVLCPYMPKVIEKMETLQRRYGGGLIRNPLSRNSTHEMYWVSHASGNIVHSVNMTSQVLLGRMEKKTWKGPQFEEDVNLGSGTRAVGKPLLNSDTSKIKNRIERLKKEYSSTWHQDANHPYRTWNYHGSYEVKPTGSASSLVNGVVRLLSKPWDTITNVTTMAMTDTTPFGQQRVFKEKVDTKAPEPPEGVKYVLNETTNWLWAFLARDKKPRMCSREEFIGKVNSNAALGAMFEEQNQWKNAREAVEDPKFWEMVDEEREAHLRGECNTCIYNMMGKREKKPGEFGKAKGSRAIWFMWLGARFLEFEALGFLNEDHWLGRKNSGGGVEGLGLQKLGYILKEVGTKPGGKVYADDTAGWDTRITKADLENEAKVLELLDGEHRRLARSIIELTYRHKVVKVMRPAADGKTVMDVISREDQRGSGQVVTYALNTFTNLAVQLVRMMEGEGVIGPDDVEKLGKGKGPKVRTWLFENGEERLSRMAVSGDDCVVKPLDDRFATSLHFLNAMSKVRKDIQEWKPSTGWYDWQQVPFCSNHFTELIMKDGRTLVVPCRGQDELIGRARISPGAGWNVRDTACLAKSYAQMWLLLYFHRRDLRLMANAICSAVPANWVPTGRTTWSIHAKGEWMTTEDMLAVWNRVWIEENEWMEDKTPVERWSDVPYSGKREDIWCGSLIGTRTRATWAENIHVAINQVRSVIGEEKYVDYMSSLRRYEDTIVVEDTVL
Sequence of polymerase of hepatitis C (HCV) (P27958 2421-3011 limits assumed): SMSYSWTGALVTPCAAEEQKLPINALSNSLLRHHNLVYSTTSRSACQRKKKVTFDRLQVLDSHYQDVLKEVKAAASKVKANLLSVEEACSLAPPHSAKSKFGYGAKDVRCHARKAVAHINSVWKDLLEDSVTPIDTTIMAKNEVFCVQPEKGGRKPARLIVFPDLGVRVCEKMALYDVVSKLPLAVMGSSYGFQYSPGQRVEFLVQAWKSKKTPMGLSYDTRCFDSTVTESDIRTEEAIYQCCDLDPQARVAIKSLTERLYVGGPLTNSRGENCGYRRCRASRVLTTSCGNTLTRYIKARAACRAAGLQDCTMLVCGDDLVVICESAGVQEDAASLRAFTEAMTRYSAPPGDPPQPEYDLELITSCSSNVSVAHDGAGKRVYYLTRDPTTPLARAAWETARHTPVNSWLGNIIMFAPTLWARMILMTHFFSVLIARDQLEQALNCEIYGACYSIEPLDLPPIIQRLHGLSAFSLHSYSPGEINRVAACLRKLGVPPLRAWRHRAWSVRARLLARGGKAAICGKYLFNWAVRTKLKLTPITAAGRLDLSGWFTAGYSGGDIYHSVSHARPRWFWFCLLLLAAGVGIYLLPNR
Sequence of polymerase of dengue (DENV) (P29990 2492-3391): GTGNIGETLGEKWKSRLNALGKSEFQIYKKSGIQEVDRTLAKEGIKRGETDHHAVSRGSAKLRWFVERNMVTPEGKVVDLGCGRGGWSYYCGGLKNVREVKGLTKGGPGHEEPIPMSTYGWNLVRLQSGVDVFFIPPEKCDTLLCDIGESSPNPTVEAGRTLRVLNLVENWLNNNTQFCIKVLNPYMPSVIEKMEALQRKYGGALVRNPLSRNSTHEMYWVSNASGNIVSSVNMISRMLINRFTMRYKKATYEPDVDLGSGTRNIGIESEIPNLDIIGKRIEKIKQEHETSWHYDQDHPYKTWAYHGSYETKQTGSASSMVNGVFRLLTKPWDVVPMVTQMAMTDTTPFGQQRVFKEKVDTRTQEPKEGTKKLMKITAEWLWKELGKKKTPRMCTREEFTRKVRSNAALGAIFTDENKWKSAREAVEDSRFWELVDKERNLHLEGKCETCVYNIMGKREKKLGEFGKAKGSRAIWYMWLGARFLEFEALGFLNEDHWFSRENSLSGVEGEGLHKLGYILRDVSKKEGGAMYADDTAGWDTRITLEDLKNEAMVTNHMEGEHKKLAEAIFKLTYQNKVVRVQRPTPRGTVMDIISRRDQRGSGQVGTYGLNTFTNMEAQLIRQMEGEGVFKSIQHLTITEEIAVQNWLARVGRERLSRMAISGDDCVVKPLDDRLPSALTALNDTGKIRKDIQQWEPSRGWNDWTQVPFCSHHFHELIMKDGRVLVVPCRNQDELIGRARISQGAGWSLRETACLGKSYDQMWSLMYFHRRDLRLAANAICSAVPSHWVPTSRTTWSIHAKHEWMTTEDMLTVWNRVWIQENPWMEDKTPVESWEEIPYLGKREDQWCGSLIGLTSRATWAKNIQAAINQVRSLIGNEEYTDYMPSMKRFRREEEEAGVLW

Regarding `Nc1nc2c(ncn2[C@@H]2OC(CO)=C[C@@H]2O)c(=O)[nH]1` [HLB-0535072], the “change in cell viability” value with HUH7 cells is listed as “slight decrease in cell viability”. Besides, in the series on West Nile Virus, the “antiviral activity against West Nile Virus” value is recorded as “no activity”. Further, in the series on ZIKV [1], the “antiviral activity against ZIKV” value is on record as “Antiviral activity was observed”. The “cytotoxicity / change in cell viability” value in the series with Vero cells is recorded as “No significant change in cell viability”.

`CC(C)OC(=O)[C@H](C)N[P@](=O)(OCC1=C[C@H](O)[C@H](n2cnc3c(=O)[nH]cnc32)O1)Oc1ccccc1` [HLB-0535083]: the “change in cell viability” value in the series on HUH7 cells and with Vero cells was “No change in cell viability” in each case. Besides, the “antiviral activity against West Nile Virus” value in the series on West Nile Virus was “no activity”. In addition, the “antiviral activity against ZIKV” value in the series on ZIKV [1] is recorded as “no activity”.

As for `Nc1ccn([C@@H]2OC(CO)=C[C@@H]2O)c(=O)n1` [HLB-0532246, reference compound], the “decrease in cell viability” value in the series on HUH7 cells and with Vero cells was 10% throughout. The “antiviral activity against WNV” value in the series on WNV (cell line not stated) is “inactive”. In addition, the “antiviral activity against ZIKV” value in the series on ZIKV [2] (Vero cells) was “demonstrated antiviral activity”.

`CC(C)OC(=O)[C@H](C)N[P@](=O)(OCC1=C[C@H](O)[C@H](n2ccc(N)nc2=O)O1)Oc1ccccc1` [HLB-0532247]: the “cytotoxicity / change in cell viability” value in the series with HUH7 cells and in the series with Vero cells was “did not show any cytotoxicity” in each case. Further, in the series with WNV (HUH7 cells), the “antiviral activity against WNV” value was “potent antiviral activity”. For the same compound, the “antiviral activity against ZIKV” value with ZIKV [2] (HUH7 cells) and with ZIKV [2] (Vero cells) was “potent antiviral activity” each time.

Turning to `Nc1ccn([C@@H]2OC(COP(=O)(O)OP(=O)(O)OP(=O)(O)O)=C[C@H]2O)c(=O)n1` [ddhCTP, 3′-Deoxy-3′,4′-didehydro-cytidine-5′-triphosphate], the “inhibition of SARS-CoV-2 polymerase” value on polymerase of SARS-CoV-2 was “inhibits”. Also, the “inhibition of PV polymerase” value at polymerase of polio (PV) is listed as “weak inhibition”. Further, the “inhibition of HCV polymerase” value in [3] was “inhibits”. For the same compound, the “inhibition of WNV polymerase” value on polymerase of WNV is reported as “inhibits”. The “inhibition of DENV polymerase” value in series [4] was “inhibits”. Further, at polymerase of ZIKV, the “inhibition of ZIKV polymerase” value was “inhibits”.

Regarding `CC(C)OC(=O)[C@H](C)N[P@](=O)(OCC1=C[C@H](O)[C@H](n2ccc(=O)[nH]c2=O)O1)Oc1ccccc1` [HLB-0532254], the “decrease in cell viability” value in the series with HUH7 cells was determined as 25%; with Vero cells, 10%. The “antiviral activity against West Nile Virus” value in the series with West Nile Virus is given as “no activity; also recorded: not active”. Further, the results for the “antiviral activity against ZIKV” value in the series with ZIKV [1] (at 1.0 mM) and with ZIKV [1] (dosed at 0.1 mM) were “did not display antiviral activity” and “potent activity”, respectively.

For `Nc1ccn([C@@H]2OC(CO)=C[C@H]2O)c(=O)n1` [3′-deoxy-3′,4′-didehydro-cytidine], in the series with ZIKV [2] (cellular studies (Gizzi et al., Nature 2018)), the “ZIKV inhibitory activity” value was “only weak ZIKV inhibitory activity”.

`Cc1cn([C@@H]2OC(CO)=C[C@@H]2O)c(=O)[nH]c1=O` [HLB-0535066]: in the series with HUH7 cells, the “change in cell viability” value was “remained unchanged”. Moreover, the “antiviral activity against West Nile Virus” value in the series with West Nile Virus is reported as “no activity”. For the same compound, in the series on ZIKV [1], the “antiviral activity against ZIKV” value was “no activity”. In the series with Vero cells, the “cytotoxicity / change in cell viability” value was “did not show any cytotoxicity”.

Regarding `O=c1ccn([C@@H]2OC(CO)=C[C@@H]2O)c(=O)[nH]1` [HLB-0535069], the “change in cell viability” value in the series with HUH7 cells and with Vero cells was “did not show a significant decrease in cell viability” each time. Besides, in the series on West Nile Virus, the “antiviral activity against West Nile Virus” value was “no activity”. Besides, the “antiviral activity against ZIKV” value with ZIKV [1] is recorded as “did not display antiviral activity”.

Consider `CC(C)OC(=O)[C@H](C)N[P@](=O)(OCC1=C[C@H](O)[C@H](n2cnc3c(=O)[nH]c(N)nc32)O1)Oc1ccccc1` [HLB-0535073], for which the “cytotoxicity / change in cell viability” value with HUH7 cells and with Vero cells was “No significant change in cell viability” throughout. The “antiviral activity against West Nile Virus” value with West Nile Virus is listed as “no activity”. Further, the “antiviral activity against ZIKV” value with ZIKV [1] is given as “Antiviral activity was observed”.

For `Cc1cn([C@@H]2OC(CO[P@@](=O)(N[C@@H](C)C(=O)OC(C)C)Oc3ccccc3)=C[C@@H]2O)c(=O)[nH]c1=O` [HLB-0535065], the cell viability in the series on HUH7 cells (by day 5) stood at 50%. In addition, the “antiviral activity against West Nile Virus” value in the series with West Nile Virus is listed as “no activity”. In addition, the “antiviral activity against ZIKV” value in the series with ZIKV [1] is “no activity”. The “cytotoxicity / change in cell viability” value in the series on Vero cells is reported as “did not show any cytotoxicity”.

The values above are taken from patent publication US20260062437A1, “ANTIVIRAL COMPOUNDS” (priority 2022, published 2026).
